Reference: publication PMC9504587, “Cytotoxic Drimane-Type Sesquiterpenes from Co-Culture of the Marine-Derived Fungi Aspergillus carneus KMM 4638 and Beauveria felina (=Isaria felina) KMM 4639” (Marine Drugs, 2022)
Converted amounts (≈) assume the structure as drawn. Like-named read-outs stand apart in the source and are kept apart here.

Assays:
[1] = tested on: normal rat cardiomyocyte H9c2 cell line; experiment: MTT cytotoxicity assay, H9c2 cells; assay type: cell-based; settings: 24 h incubation, mean ± SEM
Procedure: (§1) PC-3, MCF-7, C6, and H9c2 cells were cultured in DMEM medium (Biolot, St. Petersburg, Russia) containing 10% fetal bovine serum (Biolot, St. Petersburg, Russia) and 1% penicillin/streptomycin (Biolot, St. Petersburg, Russia) at 37 °C in a humidified atmosphere with 5% (v/v) CO2. The Raji cells were cultured in RPMI-1640 medium (Biolot, St. Petersburg, Russia) containing 10% fetal bovine serum (Biolot, St. Petersburg, Russia) and 1% penicillin/streptomycin (Biolot, St. Petersburg, Russia) under the same conditions.
(§2) Initially, cells were incubated in culture flasks until subconfluent (~80%). For testing, the cells were seeded at concentrations of 5 × 10^3 cells/well (PC-3, MCF-7, Raji, and C6 cells) or 3 × 10^3 cells/well (H9c2 cells), and experiments were started after 24 h.
(§3) The in vitro cytotoxicity of individual substances was determined by the MTT method (3-(4,5-dimethylthiazol-2-yl)-2,5-diphenyltetrazolium bromide), according to the manufacturer’s instructions (Sigma-Aldrich, St. Louis, MO, USA).
(§4) Investigated compounds were dissolved in DMSO at a concentration of 10 mM.
(§5) The cells were treated with the investigated compounds for 24 h or 48 h, and MTT reagent was added to each well of the plate. The vehicle with DMSO at a concentration of 1% was used as a control. The absorbance of formed formazan was measured at λ = 570 nm using a Multiskan FC microplate photometer (Thermo Scientific, Waltham, MA, USA) and expressed in optical units (o.u.). The results are presented as % of viable cells relative to vehicle, and 50% inhibition concentration of cell viability (IC50) was calculated.

[2] = tested on: rat glioblastoma C6; experiment: MTT cytotoxicity assay, C6 cells; assay type: cell-based; settings: 24 h incubation, mean ± SEM
Procedure: as §1, §2, §3, §4, §5

[3] = tested on: human prostate cancer PC-3; experiment: MTT cytotoxicity assay, PC-3 cells; assay type: cell-based; settings: 24 h incubation, mean ± SEM
Procedure: as §1, §2, §3, §4, §5

[4] = tested on: human lymphoma Raji; experiment: MTT cytotoxicity assay, Raji cells; assay type: cell-based; settings: 24 h incubation, mean ± SEM
Procedure: as §1, §2, §3, §4, §5

[5] = tested on: human breast cancer MCF-7; experiment: MTT cytotoxicity assay, MCF-7 cells; assay type: cell-based
Procedure: as §1, §2, §3, §4, §5

[6] = tested on: human hepatocarcinoma HepG2; parameters: method as in doi:10.25135/rnp.294.2109.2194; settings: cited from earlier work
[7] = tested on: gastric cancer MKN-45 cells; parameters: method as in doi:10.25135/rnp.294.2109.2194; settings: cited from earlier work
[8] = tested on: MCF-7 cells; experiment: Apoptosis profile by flow cytometry (Muse annexin V and dead cell kit); assay type: cell-based, human; settings: 10 µM, 48 h
Procedure: After incubation, culture media were collected; then, cells were washed twice with cold PBS and incubated with trypsin-EDTA solution for 1 min. The cell suspension was washed twice by centrifugated at 250× g for 4 min with cold PBS and used for apoptosis detection by a Muse® annexin V and dead cell kit in accordance with manufacturer’s instructions (Luminex, Austin, TX, USA). Fluorescence was measured with a Muse® cell analyzer (Luminex, Austin, TX, USA), and data were processed by Muse 1.5 analysis software (Luminex, Austin, TX, USA). The proportion of apoptotic cells was expressed as a percentage.

[9] = tested on: MCF-7 cells; experiment: Total caspase activity by flow cytometry (Muse multicaspase kit); assay type: cell-based, human; settings: 10 µM, 48 h; control 4.7%
Procedure: The influence of the compounds on the percentage of live MCF-7 cells (caspase−/7-AAD−), live MCF-7 cells with caspase activity (caspase+/7-AAD−), dead MCF-7 cells with caspase activity […] MCF-7 cells (caspase−/7-AAD+) was measured by a Muse® multicaspase kit (Luminex, Austin, TX, USA). The kit utilizes a VAD-peptide derivatized with a fluorescent group called fluorescent-labeled inhibitor of caspases (FLICA). The peptide binds to activated caspases, resulting in a fluorescent signal proportional to the number of active caspases in the cell. Fluorescent dye 7-AAD was used as a dead cell marker in this assay.
After incubation, culture media were collected, and cells were washed twice with cold PBS and incubated in trypsin-EDTA solution for 1 min. The cell suspension was washed twice by centrifugation at 250× g for 4 min with cold PBS and then used for caspase activity detection by a Muse® multicaspase kit (caspases 1, 3, 4, 5, 6, 7, 8, and 9) in accordance with manufacturer’s instructions (Luminex, Austin, TX, USA). Fluorescence was measured with a Muse® cell analyzer (Luminex, Austin, TX, USA), and data were processed by Muse 1.5 analysis software (Luminex, Austin, TX, USA).

[10] = tested on: MCF-7 cells; experiment: Cell cycle analysis by flow cytometry (propidium iodide); assay type: cell-based, human; settings: 10 µM, 48 h
Procedure: After incubation, cells were trypsinized, harvested, washed with PBS, and fixed with ice-cold 70% ethanol in a dropwise manner prior to storage at −20 °C overnight. The cells were then washed with PBS, incubated with 200 μg/mL RNAse (PanReac, AppliChem, Darmstadt, Germany) and 20 μg/mL of propidium iodide (Sigma-Aldrich, St. Louis, MO, USA) for 30 min at 37 °C, and the DNA content was analyzed with a Muse® cell analyzer (Luminex, Austin, TX, USA). The data were processed by Muse 1.5 analysis software (Luminex, Austin, TX, USA). The proportion of cells in each phase of the cell cycle was expressed as a percentage.

[11] = tested on: H9c2, C6, PC-3, Raji and MCF-7 cells; experiment: MTT cytotoxicity, summary statements over several cell lines; assay type: cell-based; settings: 24 h
Procedure: as §3, §4, §5

[12] = target: PTP1B; parameters: method as in earlier work; settings: cell-free assay; cited from earlier work
[13] = target: SHP2; parameters: method as in earlier work; settings: cell-free assay; cited from earlier work
[14] = Homo sapiens, MCF7, 24 h, 24 h incubation, mean ± SEM, read-out: IC50, MCF-7
[15] = 24 h incubation, mean ± SEM, read-out: IC50, MCF-7

SMILES | IC50 ([1]; Rattus norvegicus, H9c2, 24 h) | IC50 ([2]; Rattus norvegicus, C6, 24 h) | IC50 ([3]; Homo sapiens, PC-3, 24 h) | IC50 ([4]; Homo sapiens, Raji, 24 h) | IC50 [5, 14] | IC50 [1] | IC50 [2] | IC50 [3] | IC50 [4] | IC50 [5, 15] | other results
CC(O)C(O)C=CC=CC(=O)OC1C=C(CO)C(O)(CO)C2(C)CCCC(C)(C)C12 (stereo not shown) [Compound 1, asperflavinoid A] | 84.2 ± 3.3 µM | 102 ± 1.7 µM | 85.3 ± 2.9 µM | > 100 µM | 59 ± 4.4 µM |  |  |  |  |  | IC50 [6]: 84.4 µM; IC50 [7]: 63.2 µM
CC(O)C(O)C=CC=CC(=O)OC1C=C(CO)C(O)(CO)C2(C)CCCC(C)(C)C12 (stereo not shown) [Compound 2, asperflavinoid B] |  |  |  |  |  | 74.4 ± 4.4 µM | > 100 µM | 75.2 ± 3.8 µM | > 100 µM | 54.1 ± 2.4 µM | 
CC1(C)CCC[C@@]2(C)[C@H]1[C@H](OC(=O)/C=C/C=C/C=O)C=C1CO[C@@H](O)[C@@]12O [Compound 3, asperflavinoid C] | 55.6 ± 2.6 µM | 56 ± 1.2 µM | 50.8 ± 1.6 µM | 82.3 ± 2.9 µM | 33.8 ± 2.2 µM |  |  |  |  |  | decrease in MCF-7 cell viability ([5]; 10 µM, 48 h): ~50%; IC50 ([5]; Homo sapiens, MCF7, 48 h, 48 h incubation, concentrations up to 10 µM, read-out: IC50, MCF-7 cell viability, prolonged incubation): 10 µM; amount of apoptotic cells (early and late) ([8]; control 1.7%): 15.0%; amount of living cells ([8]; control 98.6%): 84.9%; percentage of cells exhibiting caspase activity (living and 7-AAD-labeled) [9]: 12.3%; subG0 cells ([10]; control 5.4%): 34.6%; decrease in the percentage of cells in the S phase ([10]; relative to control): 54.5%; increase of the percentage of cells in the G2/M phase ([10]; relative to control): 25.2%; reduction of the percentage of cells in the G0/G1 phase ([10]; relative to control): 30.9%; increase of the subG0 population of cells ([10]; versus control): 6.4 times; IC50 ([11]; range over both compounds and three cell lines): 54.3 to 88.1 µM; IC50, PTP1B enzyme activity [12]: 2.8 µg/mL (≈ 7.44 µM); IC50, SHP2 enzyme activity [13]: 3.0 µg/mL (≈ 7.97 µM)
CC(O)C(O)C=CC=CC(=O)OC1C=C2COC(O)C2(O)C2(C)CCCC(C)(C)C12 (stereo not shown) [Compound 4, asperflavinoid D] | 59.3 ± 1.7 µM | > 100 µM | 57.4 ± 2.4 µM | 85.7 ± 6 µM | 75 ± 6.2 µM |  |  |  |  |  | 
CC(O)C(O)C=CC=CC(=O)OC1C=C2COC(O)C2(O)C2(C)CCCC(C)(C)C12 (stereo not shown) [Compound 5, asperflavinoid E] |  |  |  |  |  | 63.9 ± 1.6 µM | > 100 µM | 59.1 ± 0.8 µM | 94.4 ± 2.3 µM | 80.6 ± 3.5 µM | 
CC1(C)CCC[C@@]2(C)[C@H]1[C@H](O)C=C1COC(=O)[C@@]12O [Compound 8, strobilactone A] | > 100 µM | > 100 µM | > 100 µM | > 100 µM | > 100 µM |  |  |  |  |  | influence on the viability of the tested cells ([11]; up to a concentration of 100 µM): did not influence the viability
